Counter-ions that a name gives are not always drawn.
Assays:
[1] = biological target: T1, HMG-CoA reductase (Rattus norvegicus, UniProt P51639); test: HMG-CoA reductase activity in solubilized enzyme preparations from rat liver microsomes (14C-HMG-CoA); format: biochemical; conditions: Table 1; solubilized rat liver microsomal enzyme; mean of 3 parallel samples; read-out: IC50 (molar concentration of the compound required for 50% inhibition of HMG-CoA reductase)
T1 construct: solubilized enzyme preparations from rat liver microsomes; from tissue; host or cells: rat liver microsomes (cholestyramine-induced), solubilized
T1 sequence (P51639 1-887): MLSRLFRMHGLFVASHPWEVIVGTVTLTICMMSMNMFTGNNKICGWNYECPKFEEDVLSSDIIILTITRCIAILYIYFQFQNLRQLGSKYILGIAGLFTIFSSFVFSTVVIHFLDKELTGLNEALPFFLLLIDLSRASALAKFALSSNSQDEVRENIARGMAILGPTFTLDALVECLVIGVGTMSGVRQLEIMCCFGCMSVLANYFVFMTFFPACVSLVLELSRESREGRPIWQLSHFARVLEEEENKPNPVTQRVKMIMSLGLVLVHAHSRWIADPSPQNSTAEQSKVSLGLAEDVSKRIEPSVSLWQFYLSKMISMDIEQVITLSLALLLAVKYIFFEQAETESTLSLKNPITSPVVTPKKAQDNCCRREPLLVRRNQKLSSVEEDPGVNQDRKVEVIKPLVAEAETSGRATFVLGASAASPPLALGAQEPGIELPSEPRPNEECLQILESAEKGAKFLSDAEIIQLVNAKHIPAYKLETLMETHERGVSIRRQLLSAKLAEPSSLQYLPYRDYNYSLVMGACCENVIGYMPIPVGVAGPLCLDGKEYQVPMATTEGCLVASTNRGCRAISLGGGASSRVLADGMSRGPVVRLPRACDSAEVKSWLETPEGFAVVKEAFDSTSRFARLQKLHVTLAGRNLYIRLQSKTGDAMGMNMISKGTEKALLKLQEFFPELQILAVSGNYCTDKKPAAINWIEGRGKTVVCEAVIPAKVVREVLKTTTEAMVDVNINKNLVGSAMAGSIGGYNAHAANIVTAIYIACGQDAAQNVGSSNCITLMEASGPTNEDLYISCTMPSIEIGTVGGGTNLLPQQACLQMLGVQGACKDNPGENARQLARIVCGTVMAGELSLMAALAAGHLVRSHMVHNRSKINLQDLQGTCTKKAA
Protocol: The HMG-CoA reductase activity was measured on solubilized enzyme preparations from rat liver microsomes induced, after a changeover in the day/night rhythm, with cholestyramine (® CUEMID). The substrate used was (S,R)-^14 C-HMG-CoA, and the NADPH concentration was maintained during the incubation by a regenerating system. ^14 C-Mevalonate was separated from the substrate and other products (for example ^14 C-HMG) by column elution, the elution profile of each individual sample being determined. ^3 H-Mevalonate was not always included in the determination because relative data on the inhibitory effects were required. […] Each individual value was the mean formed from 3 parallel samples. The significance of the mean differences between product-free and product-containing samples was assessed using the t test.

[2] = test system: cholesterol; conditions: literature; cited from earlier work
[3] = test system: cholesterol; conditions: literature; cited from earlier work; remark: listed apart in the source
[4] = test system: HEP-G2 cells (cholesterol biosynthesis); test: Inhibition of cholesterol biosynthesis in cell cultures of HEP-G2 cells (14C-acetate into 14C-cholesterol); format: cell-based; conditions: Homo sapiens, HepG2, Table 2, preincubation for example 1 hour, 14C-acetate for example 3 hours, read-out: IC50 (concentration of the compound which brings about 50% inhibition of cholesterol biosynthesis)
Protocol: Monolayers of HEP-G2 cells in lipoprotein-free nutrient medium were preincubated with appropriate concentrations of the test substances for a defined time (for example 1 hour), the labeled precursor, for example sodium ^14 C-acetate was added and then the incubation was continued (for example for 3 hours). Addition of an internal standard (^3 H-cholesterol) was followed by alkaline hydrolysis of some of the cells. The lipids were extracted from the hydrolyzed cells using chloroform/methanol. Carrier cholesterol was added to this lipid mixture which was then subjected to preparative thin-layer chromatography, the cholesterol band was visualized with iodine vapor and then isolated, and the amount of ^14 C-cholesterol formed from the ^14 C-precursor was determined by scintigraphy. Cellular protein was determined in an aliquot of the cells, so that it is possible to calculate the amount of ^14 C-cholesterol formed per mg of cellular protein in unit time.
in nmol of ^14 C-cholesterol/mg of cell protein
in comparison with the solvent control.
Using the method described above, the following values for the inhibition of cholesterol biosynthesis (in HEP-G2 cells) were determined for the compounds according to the invention, for example (the IC50 /mol/liter is the concentration of the compound which brings about 50% inhibition of cholesterol biosynthesis) (Tab. 2): […]

[5] = test system: 3-hydroxy-3-methylglutaryl-coenzyme A reductase (HMG-CoA reductase); conditions: cited from earlier work

SMILES | IC50 [1] [nM] | further results
CC(C)c1nc(C2CCCCC2)cc(-c2ccc(F)cc2)c1/C=C/[C@@H](O)C[C@@H](O)CC(=O)O [Example 13s] | 3.7 | –
CC(O)(CC(=O)O)CC(=O)O [3-Hydroxy-3-methylglutaric acid] | – | cholesterol-lowering action in human experiments [2]: significant cholesterol-lowering action; cholesterol-lowering action in the rat [3]: significant cholesterol-lowering action
CC(C)c1nc(-c2ccc(O)cc2)cc(-c2ccc(F)cc2)c1/C=C/[C@@H](O)C[C@@H](O)CC(=O)O [Example 13ab] | 1.5 | –
CC(C)c1nc(-c2ccccc2)nc(-c2ccc(F)cc2)c1/C=C/[C@@H](O)C[C@@H](O)CC(=O)O [Example 13o] | 3 | –
CC(C)c1nc(-c2ccc(F)cc2)nc(-c2ccc(F)cc2)c1/C=C/[C@@H](O)C[C@@H](O)CC(=O)O [Example 13w] | 0.9 | –
CC(C)c1nc(-c2ccccc2)cc(-c2ccc(F)cc2)c1/C=C/[C@@H](O)C[C@@H](O)CC(=O)O [Example 13e] | 2.9 | –
Cc1cc(-c2ccc(F)cc2)c(/C=C/[C@@H]2C[C@@H](O)CC(=O)O2)c(C(C)C)n1 [Example 11d] | – | IC50 [4]: 50 nM
Cc1ccc(C)c(-c2cc(-c3ccc(F)cc3)c(/C=C/[C@@H](O)C[C@@H](O)CC(=O)O)c(C(C)C)n2)c1 [Example 13i] | 5 | –
CC(C)c1cc(-c2ccc(F)cc2)c(/C=C/[C@@H](O)C[C@@H](O)CC(=O)O)c(C(C)C)n1 [Example 13q] | 2.5 | –
Cc1cc(-c2ccc(F)cc2)c(/C=C/[C@@H](O)C[C@@H](O)CC(=O)O)c(C(C)C)n1 [Example 13d] | 9.1 | –
CC(C)c1nc(-c2ccc(F)cc2)c(/C=C/[C@@H](O)C[C@@H](O)CC(=O)O)c(C(C)C)n1 [Example 13v] | 2.5 | –
CC(C)(C)c1nc(-c2ccccc2)cc(-c2ccc(F)cc2)c1/C=C/[C@@H](O)C[C@@H](O)CC(=O)O [Example 13g] | 18 | –
CC(C)c1cc(-c2ccccc2)nc(-c2ccc(F)cc2)c1/C=C/[C@@H](O)C[C@@H](O)CC(=O)O [Example 13f] | 4 | –
Cc1nc(-c2ccccc2)cc(-c2ccc(F)cc2)c1/C=C/[C@@H](O)C[C@@H](O)CC(=O)O [Example 13c] | 38 | –
CC[C@H](C)C(=O)O[C@H]1CCC=C2C=C[C@H](C)[C@H](CC[C@@H]3C[C@@H](O)CC(=O)O3)[C@H]21 [compactin] | – | inhibition of HMG-CoA reductase (literature) [5]: inhibition
Cc1cc(-c2ccc(Cl)cc2)c(/C=C/[C@@H](O)C[C@@H](O)CC(=O)O)c(C)n1 [Example 13b] | 94 | –
Cc1nc(-c2ccccc2)cc(-c2ccc(F)cc2)c1/C=C/[C@@H]1C[C@@H](O)CC(=O)O1 [Example 11c] | – | IC50 [4]: 90 nM
Cc1cc(-c2ccc(F)cc2)c(/C=C/[C@@H](O)C[C@@H](O)CC(=O)O)c(C)n1 [Example 13a, (E)- and (Z)-(3R,5S)-3,5-Dihydroxy-7-(2,6-dimethyl-4-(4-fluorophenyl)pyridin-3-yl)-6-heptenoic acid potassium salts] | 260 | –
CC(C)c1nc(-c2ccc(F)cc2)cc(-c2ccc(F)cc2)c1/C=C/[C@@H](O)C[C@@H](O)CC(=O)O [Example 13j] | 2.3 | –
Cc1nc(C)c(/C=C/[C@@H](O)C[C@@H](O)CC(=O)O)c(-c2ccc(F)cc2)n1 [Example 13k] | 500 | –
CC(C)c1nc(-c2ccccc2)nc(-c2ccc(F)cc2)c1/C=C/[C@@H]1C[C@@H](O)CC(=O)O1 [Example 11o] | – | IC50 [4]: 5 nM
CC(C)c1nc(-c2ccccc2)cc(-c2ccc(F)cc2)c1/C=C/[C@@H]1C[C@@H](O)CC(=O)O1 [Example 11e] | – | IC50 [4]: 5 nM
O=C(O)C[C@H](O)C[C@H](O)/C=C/c1c(-c2ccc(F)cc2)cc(-c2ccccc2)nc1C1CC1 [Example 13ac] | 1 | –
Cc1nc(C)c(/C=C/[C@@H](O)C[C@@H](O)CC(=O)O)c(-c2ccc(Cl)cc2)n1 [Example 13l] | 600 | –
CC(C)c1nc(C(C)(C)C)cc(-c2ccc(F)cc2)c1/C=C/[C@@H](O)C[C@@H](O)CC(=O)O [Example 13r] | 1.2 | –
